In brackets after ≈: the same amount, converted by molar mass.

One data set deals with mice. The settings on record: mouse, in vivo, ip, 10 mg/kg.
Data set [1] is described as follows: Nature of the substance (acidity). The data set is classed as physicochemical.
Data set [2] concerns Escherichia coli NIHJ JC-2. Nature of the data set: Minimum inhibitory concentration, agar dilution method. The class given is cell-based. The conditions noted are these: NIHJJC2. An excerpt:
(§1) The physical and chemical properties and the minimum inhibitory concentration against various microorganisms as measured by agar dilution method of pyrrolomycin E as obtained by the above-described method are as follows: […]
(In general: In agar dilution the substance is mixed into plates at graded concentrations.)

The test system of data set [3] is Staphylococcus epidermidis ATCC 14990. Described as above. The class given is cell-based. The settings on record: ATCC14990.
Text: as §1

For data set [4], the system named is Staphylococcus aureus FDA209PJC-1. The description is as above. The data set is classed as cell-based. The conditions noted are these: FDA209PJC1.
Text: as §1

Data set [5] has as its system Bacillus subtilis ATCC 6633. Described as above. The data set is classed as cell-based. The conditions noted are these: ATCC6633.
Text: as §1

A further data set concerns Salmonella typhi 0-901-W. Described as above. The data set is classed as cell-based. The settings on record: Salmonella enterica, read-out: Minimum Inhibitory Concentration.
Text: as §1

The test system of data set [6] is Staphylococcus aureus Smith. The data set is described as above. The data set is classed as cell-based.
Text: as §1

Data set [7] has as its system Serratia marcescens No. 1. Described as above. The class given is cell-based.
Text: as §1

Another data set concerns Proteus vulgaris OX-19. The description is as above. The class given is cell-based. The conditions noted are these: OX19.
Text: as §1

For data set [8], the system named is Pseudomonas aeruginosa IAM 1007. The description is as above. The settings on record: IAM1007. The data set is classed as cell-based.
Text: as §1

The test system of data set [9] is Klebsiella pneumoniae PCI-602. The description is as above. The class given is cell-based. The settings on record: PCI602.
Text: as §1

Data set [10] deals with Escherichia coli W 3630 RGN823. The data set is described as above. The class given is cell-based. The conditions noted are these: W3630RGN823, read-out: Minimum Inhibitory Concentration.
Text: as §1

A further data set in a line: Solubility. The data set is classed as physicochemical.

Turning to `O=[N+]([O-])c1cc(Cl)[nH]c1-c1cc(Cl)cc(Cl)c1O` [pyrrolomycin E], the “acute toxicity (survival)” value in the data set with mice is “All mice survived”. For the same compound, the “acidity of the substance” value in data set [1] is reported as “Weak acidic substance”. Further, the MIC was more than 100 µg/mL in data set [2]; 1.56 µg/mL (≈ 5.07 µM) in data set [3]; 1.56 µg/mL (≈ 5.07 µM) in data set [4]; 0.025 µg/mL (≈ 0.0813 µM) in data set [5]; more than 100 µg/mL in the data set on Salmonella typhi 0-901-W; 1.56 µg/mL (≈ 5.07 µM) in [6]. Further, the MIC was more than 100 µg/mL in data set [7]; 6.25 µg/mL (≈ 20.3 µM) with Proteus vulgaris OX-19; more than 100 µg/mL in [8]; more than 100 µg/mL in data set [9]; 12.5 µg/mL (≈ 40.6 µM) in data set [10]. Besides, the Solubility result in the data set “Solubility” (acetone) is listed as “Soluble”; in the data set “Solubility” (ethyl acetate) it was “Soluble”; in “Solubility” (methanol) it was “Soluble”; in “Solubility” (n-hexane), “sparingly soluble”; in the data set “Solubility” (water) it was “sparingly soluble”.

(Values after patent US4495358A, “Antibiotic pyrrolomycin E” (Meiji Seika Kaisha, Ltd., priority 1981, dated 1985).)
